Values of other authors in US20080287418A1, “Extended Release Compositions and Methods for Their Manufacture” (ASTRAZENECA AB, priority 2007, published 2008).

Solubility in acid (acid): soluble in acid
Solubility in water (water): slightly soluble in water
Structure (SMILES): OCCOCCN1CCN(C2=Nc3ccccc3Sc3ccccc32)CC1 [quetiapine, 11-[4-[2-(2-hydroxyethoxy)ethyl]-1-piperazinyl]dibenzo[b,f][1,4]thiazepine]
